Data as given in patent US20120270237A9, “METHODS FOR THE IDENTIFICATION OF KINASE INTERACTING MOLECULES AND FOR THE PURIFICATION OF KINASE PROTEINS” (Cellzone AG, priority 2009, published 2012).

Columns and labels:
[1] = molecular target: T1, MAP3K5 (Homo sapiens, UniProt Q99683); assay: Kinobeads competition binding, HL60 cell lysate; parameters: endogenous in cells; host or cells: HL60 cell lysate; conditions: 10 μM free compound
T1 sequence (Q99683 1-1374): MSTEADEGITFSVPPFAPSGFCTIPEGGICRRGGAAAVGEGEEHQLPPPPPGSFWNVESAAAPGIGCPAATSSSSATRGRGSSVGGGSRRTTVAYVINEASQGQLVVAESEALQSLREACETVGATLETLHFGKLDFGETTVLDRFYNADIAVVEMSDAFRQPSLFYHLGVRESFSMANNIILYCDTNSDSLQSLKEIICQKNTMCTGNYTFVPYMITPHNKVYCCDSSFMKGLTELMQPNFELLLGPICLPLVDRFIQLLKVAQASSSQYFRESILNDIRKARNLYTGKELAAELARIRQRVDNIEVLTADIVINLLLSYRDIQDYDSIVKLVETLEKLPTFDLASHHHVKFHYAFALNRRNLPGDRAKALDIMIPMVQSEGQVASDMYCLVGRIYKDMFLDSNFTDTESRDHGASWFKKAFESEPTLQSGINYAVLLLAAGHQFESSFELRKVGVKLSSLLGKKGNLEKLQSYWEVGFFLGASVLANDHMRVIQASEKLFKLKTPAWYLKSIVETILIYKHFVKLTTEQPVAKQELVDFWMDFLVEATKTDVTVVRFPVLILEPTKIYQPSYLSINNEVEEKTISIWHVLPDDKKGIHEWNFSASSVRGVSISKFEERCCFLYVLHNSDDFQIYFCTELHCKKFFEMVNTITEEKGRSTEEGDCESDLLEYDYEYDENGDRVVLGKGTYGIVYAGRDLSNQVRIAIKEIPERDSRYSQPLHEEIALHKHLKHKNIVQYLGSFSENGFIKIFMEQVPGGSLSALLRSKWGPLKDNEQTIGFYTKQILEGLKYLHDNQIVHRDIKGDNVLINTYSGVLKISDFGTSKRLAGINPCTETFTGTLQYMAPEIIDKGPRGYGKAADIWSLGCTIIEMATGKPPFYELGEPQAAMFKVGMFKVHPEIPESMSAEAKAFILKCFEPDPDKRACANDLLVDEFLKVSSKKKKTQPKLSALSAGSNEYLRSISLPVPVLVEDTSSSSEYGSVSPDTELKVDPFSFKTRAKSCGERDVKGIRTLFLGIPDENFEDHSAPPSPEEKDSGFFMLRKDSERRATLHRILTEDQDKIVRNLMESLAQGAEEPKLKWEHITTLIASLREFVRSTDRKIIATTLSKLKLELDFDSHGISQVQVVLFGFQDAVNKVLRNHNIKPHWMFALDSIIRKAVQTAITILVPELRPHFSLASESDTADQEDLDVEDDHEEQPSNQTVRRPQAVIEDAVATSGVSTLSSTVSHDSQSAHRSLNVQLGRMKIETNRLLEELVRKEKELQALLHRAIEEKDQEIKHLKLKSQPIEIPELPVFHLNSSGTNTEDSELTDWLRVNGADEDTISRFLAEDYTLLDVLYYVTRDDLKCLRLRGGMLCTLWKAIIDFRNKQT
Description: (§1) To one aliquot of cell lysate 10 μM of the free compound (FIG. 3, CZC31326) was added and allowed to bind to proteins in the lysate. Then the affinity matrix with the immobilized compound (Example 1) was added to capture proteins that were not interacting with the previously added free compound. Beads were separated from the lysate and bead bound proteins were eluted in SDS sample buffer and subsequently separated by SDS-Polyacrylamide gel electrophoresis (FIG. 4). Suitable gel bands were cut out and subjected to in-gel proteolytic digestion with trypsin. The second lysate aliquot was processed identically, however no free compound was added (DMSO solvent control). Peptides originating from samples 1 and 2 were labeled with iTRAQ reagents (iTRAQ 114 and iTRAQ 117) and the combined samples were analyzed with a nano-flow liquid chromatography system coupled online to a tandem mass spectrometer (LC-MS/MS) experiment followed by iTRAQ reporter ion quantification in the MS/MS spectra (Ross et al., 2004. Mol. Cell. Proteomics 3(12):1154-1169). Further experimental protocols can be found in WO2006/134056 and a previous publication (Bantscheff et al., 2007. Nature Biotechnology 25, 1035-1044). Sepharose-beads with the immobilized compound (100 μl beads per pull-down experiment) were equilibrated in lysis buffer and incubated with a cell lysate sample containing 50 mg of protein on an end-over-end shaker (Roto Shake Genie, Scientific Industries Inc.) for 2 hours at 4° C. […] The iTRAQ reagents are a set of multiplexed, amine-specific, stable isotope reagents that can label peptides on amino groups in up to four different biological samples enabling simultaneous identification and quantitation of peptides. […] Relative protein quantitation was performed using peak areas of iTRAQ reporter ion signals essentially as described in an earlier publication (Bantscheff et al., 2007. Nature Biotechnology 25, 1035-1044).

[2] = molecular target: MARK2 (Homo sapiens, UniProt Q7KZI7); assay: Kinobeads competition binding, HL60 cell lysate; parameters: endogenous in cells; host or cells: HL60 cell lysate; conditions: 10 μM free compound
Description: as §1

Sequence of MARK2 (Q7KZI7 whole entry): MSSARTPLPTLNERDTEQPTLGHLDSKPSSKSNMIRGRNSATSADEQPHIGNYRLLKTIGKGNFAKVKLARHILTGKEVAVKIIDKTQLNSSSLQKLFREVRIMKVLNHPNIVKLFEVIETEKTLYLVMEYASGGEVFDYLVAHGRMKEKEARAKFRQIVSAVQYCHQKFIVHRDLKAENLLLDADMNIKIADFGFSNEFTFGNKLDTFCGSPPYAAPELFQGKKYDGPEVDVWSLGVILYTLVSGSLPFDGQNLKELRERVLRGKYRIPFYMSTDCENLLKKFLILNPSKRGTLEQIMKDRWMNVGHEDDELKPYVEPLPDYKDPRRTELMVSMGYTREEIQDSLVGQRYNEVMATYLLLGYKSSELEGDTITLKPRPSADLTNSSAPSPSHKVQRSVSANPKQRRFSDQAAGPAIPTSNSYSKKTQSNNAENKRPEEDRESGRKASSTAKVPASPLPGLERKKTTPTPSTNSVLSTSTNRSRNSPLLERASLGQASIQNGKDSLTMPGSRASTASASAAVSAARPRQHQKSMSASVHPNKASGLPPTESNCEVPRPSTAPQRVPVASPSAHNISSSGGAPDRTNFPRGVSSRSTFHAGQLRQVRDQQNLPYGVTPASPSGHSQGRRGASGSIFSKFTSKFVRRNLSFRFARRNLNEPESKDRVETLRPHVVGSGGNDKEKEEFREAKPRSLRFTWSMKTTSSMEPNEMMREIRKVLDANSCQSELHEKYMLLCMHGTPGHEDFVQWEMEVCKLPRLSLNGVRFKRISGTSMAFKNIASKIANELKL

inhibition at 10 µM [1]: 88.4% | inhibition at 10 µM [2]: 97.1%
Compound: CS(=O)(=O)Nc1ccccc1Nc1nc(Nc2cccc(OCCN)c2)ncc1Cl [CZC31326, N-(2-(2-(3-(2-aminoethoxy)phenylamino)-5-chloropyrimidin-4-ylamino)phenyl)methanesulfonamide]
